For series [1], the system named is L1210. Put plainly: L1210 cytotoxic potency. Particulars: for increase in cytotoxic potency over (+)-CBI-indole (5): relative to (+)-CBI-indole (R=H).
The test system of another series is w794 DNA. Put plainly: DNA alkylation selectivity, efficiency and rate in w794 DNA. The series is classed as biochemical.
Series [2] relates to L1210. The note with it: cited from earlier work.
Where [3] appears, read: Mus musculus, L1210, read-out: IC50 (cytotoxic potency).

SMILES strings stand for the structures. Where “and” joins values, the source holds several entries; their conditions need not be identical. Equal entries are not always repeated. Where two headings read alike, the source gives them in different places.

In the case of `CC(=O)c1ccc2[nH]c(C(=O)N3C[C@H]4C[C@@]45C3=CC(=O)c3ccccc35)cc2c1` [compound 54, N^2-[(5-Acetylindole-2-yl)carbonyl]-(8bR,9aS)-1,2,9,9a-tetrahydrocyclopropa[c]benz[e]in-dol-4-one], the “increase in cytotoxic potency over (+)-CBI-indole (5)” value (from here on “increase in cytotoxic potency over”) in the series with L1210 [1] stood at 1000 fold. Also, in the series with w794 DNA, the DNA alkylation selectivity entry was “no alterations in the inherent DNA alkylation selectivity”; the “rate and efficiency of DNA alkylation” value was “enhanced rate and efficiency of DNA alkylation”.

As a reminder, the IC50 is the concentration that gives 50% inhibition. As for `COC(=O)c1cc2c([nH]1)C(=O)C=C1N(C(=O)c3cc4cc(OC)c(OC)c(OC)c4[nH]3)CC3CC123` (centres unmarked) [duocarmycin SA, reference compound], the IC50 in the series on L1210 [1] (setting [3]) was 0.006 to 0.01 nM. Further, the “effect of 5,6,7-trimethoxy substitution / removal of TMI methoxy substituents on cytotoxic potency” value with L1210 [2] (literature comparison series) is reported as 6.5-10 fold.

For the compound `NC(=O)N1CCc2c1ccc1[nH]c(C(=O)N3C[C@H]4C[C@@]45C3=CC(=O)c3ccccc35)cc21` [(+)-CBI-CDPI1], in the series on L1210 [2] (disclosed in prior studies (J. Org. Chem. 1996, 61, 4894), read-out: IC50 (cytotoxic potency), prior studies), the IC50 was 0.005 nM.

In the case of `O=C(c1cc2cc([N+](=O)[O-])ccc2[nH]1)N1C[C@@H](CCl)c2c1cc(O)c1ccccc21` [compound 49, 3-(5-Nitroindole-2-carbonyl)-1-(S)-(chloromethyl)-5-hydroxy-1,2-dihydro-3H-benz[e]indole], the “distinction NO2 versus OMe substituent (more potent than corresponding methoxy derivative)” value in the series with L1210 [1] (C5, C6, C7 nitro vs corresponding methoxy) came to 2.5 ×. The IC50 with L1210 [1] (setting [3]) was 0.02 nM.

With `CCC(=O)c1ccc2[nH]c(C(=O)N3CC4CC45C3=CC(=O)c3ccccc35)cc2c1` [compound 56, N^2-[(5-Propionylindole-2-yl)carbonyl]-(8bR,9aS)-1,2,9,9a-tetrahydrocyclopropa[c]benz[e]-indol-4-one], the “increase in cytotoxic potency over” value in the series with L1210 [1] is given as 1000 fold.

On to `O=C1C=C2N(C(=O)c3cc4cc5ccccc5cc4[nH]3)C[C@@H]3C[C@]23c2ccccc21` [(+)-78, N^2-[(Benz[f]indole-2-yl)carbonyl]-1,2,9,9a-tetrahydrocyclopropa[c]benz[e]indol-4-one], for which the “increase in cytotoxic potency over” value in the series on L1210 [1] came to 5 fold.

As to `COc1ccc2cc(C(=O)N3CC4CC45C3=CC(=O)c3ccccc35)[nH]c2c1OC` [compound 12, N^2-[(6,7-Dimethoxyindole-2-yl)carbonyl]-(8bR,9aS)-1,2,9,9a-tetrahydrocyclopropa[c]benz[e]indol-4-one], in the series with L1210 [1] (relative to CBI-TMI, IC50=30 pM), the “decrease in cytotoxic potency compared with CBI-TMI (4)” value was found to be 6.6 fold.

For `COc1cc2cc(C(=O)N3CC4CC45C3=CC(=O)c3ccccc35)[nH]c2c(OC)c1OC` (centres unmarked) [CBI-TMI, reference compound], the half-inhibitory concentration (IC50) with L1210 [1] (read-out: IC50 (cytotoxic potency), L1210) was 0.03 nM. Moreover, the “increase in cytotoxic potency over” value in the series on L1210 [1] was ~100 fold and 90 fold.

Regarding `O=C1C=C2N(C(=O)c3cc4cc5c(cc4[nH]3)OCO5)C[C@H]3C[C@@]23c2ccccc21` [compound 75, N^2-[([1,3]Dioxolo[f]indole-2-yl)carbonyl]-(8bR,9aS)-1,2,9,9a-tetrahydrocyclopropa[c]-benz[e]indol-4-one], in the series on L1210 [1], the “relative cytotoxic potency in words” value is listed as “substantially less potent than the corresponding unconstrained C5,6 dimethoxy derivative 11”.
